Test results from patent US20200054671A1, “TREATMENT OF ANXIETY DISORDER AND AUGMENTATION OF ANTI-ANXIETY INTERVENTIONS BY ADMINISTRATION OF NOBLE GAS CONTAINING MIXTURES” (NOBILIS THERAPEUTICS, INC., priority 2016, published 2020).

Tests used:
[1] = tested on: patients with panic disorder; assay: Clinical Global Impression Scale, improvement subscale (CGI-I); assay type: in vivo, human
Description: (§1) This investigator-initiated study was performed under a prospective clinical trial protocol approved by the Institute of Mental Health and Addictology, which is accredited by the Ministry of Health of the Russian Federation to conduct clinical trials (#57689). Study conduct was in compliance with all ethical standards and good clinical practice. Ninety outpatients with a diagnosis of “panic disorder» (F41.0) according to ICD-10 were enrolled through the Institute of Mental Health and Addictology. Five patients dropped out of the study due to minor side effects, predominantly lightheadedness and headaches, and 4 patients dropped out of the study for unspecified reasons. As the intention to treat analysis was not utilized due to the open label design of the study, 81 patients with PD (49 women and 32 men), mean age was 35.2 years (range […]) were studied. Patients were randomized into 2 groups: with “pure” PD (group 1) and “comorbid” PD, when it was co-diagnosed with other mental illnesses (group 2). All patients with isolated PD (Group 1, n=42) received monotherapy with xenon at the aforementioned schedule, while the majority of patients (94.9%) with PD and comorbid conditions, which were predominantly depression (group 2, n=39), in addition to xenon administration continued treatment for comorbid psychiatric disorders, which mainly consisted of antidepressants (SSRIs and SNRIs). In these patients, the reason for xenon treatment was the increase in the frequency and severity of panic attacks despite ongoing treatment with stable pharmacotherapy of at least 3 to 6 months' duration.
(§2) Administration of xenon was performed through inhalation of xenon-oxygen mixtures that were escalated from 15%/85% to 30%/70% with titration increments of 5% per session. Each patient in the study underwent between 6 and 7 treatments with xenon-oxygen mixture. The first three sessions were carried out daily and from session 4 onward—every other day. The selected dosing regime and the composition of the gas mixtures were based on the historical evidence of safety of subanesthetic use of xenon in imaging.
(§3) Medical grade xenon (“medksenon»®, 99.9999%, manufacturer: Atommedcenter, Moscow, Russia) and medical grade oxygen in separate containers were admixed. Mixing and administration of gases in preset concentration and volume was accomplished with the use of the medical device MAGi-AMTS1, which enables the operator to adjust the concentration of xenon in the gas mixture, and which contains the electronic flow meter with a software module that allows for such adjustments. Administration of xenon-oxygen mixture to the patient was carried out via a face mask. Patients were asked to slowly inhale, holding breath for 5 to 10 seconds; exhale into the loop and after 35-40 seconds exhale outside the contour and breath in the new portion of gas mixture. Xenon inhalation lasted from 2.5 to 4 minutes, and the xenon consumption was capped at 3.0 liters per procedure. The patients were assessed subjectively by the provider, while the vital signs (pulse, blood pressure, oxygen saturation) were continuously monitored.
Patients were evaluated after each xenon inhalation and at 30 and 180 days after completion of treatment. To this end, we employed clinical psychopathological and clinical catamnestic methods, and psychometric scales that are widely used internationally to assess the treatment of mental disorders. Scale Assessment, Zung Self-Rating Anxiety Scale (SAS) was performed prior to starting therapy (V1), and at 1 and 6 months after treatment. According to this scale, SAS index of less than 45 points corresponds to the normal value, 45-59—to mild-to-moderate degree of anxiety, 60-74—to high degree of anxiety, more than 75—to an extremely high-level of anxiety. […]

[2] = tested on: patients with panic disorder; assay: Hospital Anxiety and Depression Scale, anxiety subscale (HADS_T), open clinical trial of xenon inhalation; assay type: in vivo, human; conditions: for HADS-T, V6 − V1, mean paired difference: after 6 sessions vs baseline; for HADS_T total score: after 3 sessions (V3)
Description: as §1, §2, §3
Patients were evaluated after each xenon inhalation and at 30 and 180 days after completion of treatment. To this end, we employed clinical psychopathological and clinical catamnestic methods, and psychometric scales that are widely used internationally to assess the treatment of mental disorders. […]

[3] = cited from earlier work

Compound: [Xe] [xenon]
- CGI-I, V2: Marked deterioration, share of patients ([1]; Total (n = 81)): 1.2%
- CGI-I, V2: Marked improvement, share of patients ([1]; Total (n = 81)): 12.3%
- CGI-I, V2: Minimal deterioration, share of patients ([1]; Total (n = 81)): 1.2%
- CGI-I, V2: Minimal improvement, share of patients ([1]; Total (n = 81)): 54.3%
- CGI-I, V2: No changes, share of patients ([1]; Total (n = 81)): 30.9%
- CGI-I, V3: Marked improvement, share of patients ([1]; Total (n = 81)): 25.9%
- CGI-I, V3: Minimal improvement, share of patients ([1]; Total (n = 81)): 61.7%
- CGI-I, V3: No changes, share of patients ([1]; Total (n = 81)): 12.3%
- CGI-I, V4: Marked improvement, share of patients ([1]; Total (n = 81)): 54.3%
- CGI-I, V4: Minimal improvement, share of patients ([1]; Total (n = 81)): 40.7%
- CGI-I, V4: No changes, share of patients ([1]; Total (n = 81)): 4.9%
- CGI-I, V5: Marked improvement, share of patients ([1]; Total (n = 81)): 79.0%
- CGI-I, V5: Minimal improvement, share of patients ([1]; Total (n = 81)): 18.5%
- CGI-I, V5: Very marked improvement, share of patients ([1]; Total (n = 81)): 2.5%
- CGI-I, V6: Marked improvement, share of patients ([1]; Total (n = 81)): 66.7%
- CGI-I, V6: Very marked improvement, share of patients ([1]; Total (n = 81)): 33.3%
- CGI-I, V2: Marked deterioration, share of patients ([1]; «Comorbid PD» (n = 39)): .0%
- CGI-I, V2: Marked improvement, share of patients ([1]; «Comorbid PD» (n = 39)): 12.8%
- CGI-I, V2: Minimal deterioration, share of patients ([1]; «Comorbid PD» (n = 39)): .0%
- CGI-I, V2: Minimal improvement, share of patients ([1]; «Comorbid PD» (n = 39)): 61.5%
- CGI-I, V2: No changes, share of patients ([1]; «Comorbid PD» (n = 39)): 25.6%
- CGI-I, V3: Minimal improvement, share of patients ([1]; «Comorbid PD» (n = 39)): 69.2%
- CGI-I, V3: No changes, share of patients ([1]; «Comorbid PD» (n = 39)): 20.5%
- CGI-I, V4: Marked improvement, share of patients ([1]; «Comorbid PD» (n = 39)): 25.6%
- CGI-I, V4: Minimal improvement, share of patients ([1]; «Comorbid PD» (n = 39)): 64.1%
- CGI-I, V4: No changes, share of patients ([1]; «Comorbid PD» (n = 39)): 10.3%
- CGI-I, V5: Marked improvement, share of patients ([1]; «Comorbid PD» (n = 39)): 61.5%
- CGI-I, V5: Minimal improvement, share of patients ([1]; «Comorbid PD» (n = 39)): 38.5%
- CGI-I, V5: Very marked improvement, share of patients ([1]; «Comorbid PD» (n = 39)): .0%
- CGI-I, V6: Marked improvement, share of patients ([1]; «Comorbid PD» (n = 39)): 87.2%
- CGI-I, V6: Very marked improvement, share of patients ([1]; «Comorbid PD» (n = 39), after 6 treatments): 12.8%
- CGI-I, V3: Marked improvement, share of patients ([1]; «Comorbid PD» (n = 39), after the third treatment): 10.3%
- CGI-I, V2: Marked deterioration, share of patients ([1]; «Pure PD» (n = 42)): 2.4%
- CGI-I, V2: Marked improvement, share of patients ([1]; «Pure PD» (n = 42)): 11.9%
- CGI-I, V2: Minimal deterioration, share of patients ([1]; «Pure PD» (n = 42)): 2.4%
- CGI-I, V2: Minimal improvement, share of patients ([1]; «Pure PD» (n = 42)): 47.6%
- CGI-I, V2: No changes, share of patients ([1]; «Pure PD» (n = 42)): 35.7%
- CGI-I, V3: Minimal improvement, share of patients ([1]; «Pure PD» (n = 42)): 54.8%
- CGI-I, V3: No changes, share of patients ([1]; «Pure PD» (n = 42)): 4.8%
- CGI-I, V4: Marked improvement, share of patients ([1]; «Pure PD» (n = 42)): 81.0%
- CGI-I, V4: Minimal improvement, share of patients ([1]; «Pure PD» (n = 42)): 19.0%
- CGI-I, V4: No changes, share of patients ([1]; «Pure PD» (n = 42)): .0%
- CGI-I, V5: Marked improvement, share of patients ([1]; «Pure PD» (n = 42)): 95.2%
- CGI-I, V5: Minimal improvement, share of patients ([1]; «Pure PD» (n = 42)): .0%
- CGI-I, V5: Very marked improvement, share of patients ([1]; «Pure PD» (n = 42)): 4.8%
- CGI-I, V6: Marked improvement, share of patients ([1]; «Pure PD» (n = 42)): 47.6%
- CGI-I, V6: Very marked improvement, share of patients ([1]; «Pure PD» (n = 42), after 6 treatments): 52.4%
- CGI-I, V3: Marked improvement, share of patients ([1]; «Pure PD» (n = 42), after the third treatment): 40.5%
- HADS-T, V6 − V1, mean paired difference ([2]; Group 1 («pure» PD, n=42, xenon monotherapy)): −11.214
- HADS_T total score ([2]; Group 1): 13.3
- HADS-T, V6 − V1, mean paired difference ([2]; Group 2 («comorbid» PD, n=39)): −11.436
- HADS_T total score ([2]; Group 2): 13.3
- HADS_T overall score category ([2]; both groups, end of treatment (V6)): norm
- time at which end-expiratory xenon concentration reached a plateau ([3]; during inhalational anesthesia): 7 min
- time to successful loading of xenon in the brain ([3]; during inhalational anesthesia): approximately 15 minutes
- half-time for equilibration between xenon concentration in arterial blood and at the site of action ([3]; inhalation): 1.49 ± 0.04 min
